Patent US20240270736A1, “MACROCYCLIC HETEROCYCLES AND USES THEREOF” (Kumquat Biosciences Inc., priority 2022, published 2024)

Tests used:
Type in all cases: binding
KRAS G12D = target: T1, KRAS G12D (Homo sapiens, UniProt P01116, G12D); test: HTRF assay, interaction of KRAS G12D with SOS1; settings: Ras::SOS1 interaction, read-out: Inhibition of KRAS G12D (IC50)
T1 construct: made in house; host or cells: E. coli, e.g. BL21 (DE3)
Text: (§1) This assay can be also used to assess a selective inhibition or reduction of signaling output of a mutant Ras protein relative to a wildtype, or relative to a different mutant Ras protein. For example, the equilibrium interaction of wildtype Kras or K-Ras mutant (e.g., wildtype or a mutant thereof) with SOS1 (e.g., hSOS1) can be assessed as a proxy or an indication for a subject compound's ability to bind and inhibit Ras protein. The HTRF assay detects from (i) a fluorescence resonance energy transfer (FRET) donor (e.g., antiGST-Europium) that is bound to GST-tagged K-Ras mutant to (ii) a FRET acceptor (e.g., anti-6His-XL665) bound to a His-tagged hSOS1.
(§2) The assay buffer can contain ˜5 mM HEPES pH 7.4, ˜150 mM NaCl, ˜ 1 mM DTT, 0.05% BSA and 0.0025% (v/v) Igepal. A Ras working solution is prepared in an assay buffer containing typically a suitable amount of the protein construct (e.g., GST-tagged K-Ras mutant) and the FRET donor (e.g., antiGST-Eu(K) from Cisbio, France). A SOS1 working solution is prepared in an assay buffer containing suitable amount of the protein construct (e.g., His-hSOS1) and the FRET acceptor (e.g., anti-6His-XL665 from Cisbio, France). A suitable amount of the protein construct will depend on the range of activity or range of IC50 values being detected or under investigation. For detecting an IC50 within a range of 500 nM, the protein constructs of the same range of molarity can be utilized.
(§3) A fixed volume of DMSO with or without test compound is transferred into a 384-well plate. Ras working solution is added to all wells of the test plate. SOS1 working solution is added to all wells except for those that are subsequently filled with inhibitor control solution. Upon incubation for about 10 minutes or longer, the fluorescence is measured with a M1000Pro plate reader (Tecan) using HTRF detection (excitation 337 nm, emission 1: 620 nm, emission 2: 665 nm). Compounds are tested in duplicate at different concentrations (for example, 10 μM, 2.5 μM, 0.63 μM, 0.16 μM, 0.04 μM, 0.01 μM test compound). The ratiometric data (i.e., emission 2 divided by emission 1) is used to calculate IC50 values against Ras using GraphPad Prism (GraphPad software). Signaling output measured in terms of IC50 values can be obtained and a ratio of IC50 against one mutant relative to another mutant can be calculated. For instance, a selective reduction of K-Ras G12D signaling output can be evidenced by a ratio greater than one. In particular, a selective reduction of K-Ras G12D signaling relative to K-Ras WT signaling is evidenced if the ratio of IC50 (against K-Ras WT) to IC50 (against K-Ras G12D) is greater than 1.

wildtype KRAS = target: T2, wildtype KRAS (Homo sapiens, UniProt P01116); test: HTRF assay, interaction of wildtype KRAS with SOS1; settings: Ras::SOS1 interaction, read-out: Inhibition of KRAS WT (IC50)
T2 construct: made in house; host or cells: E. coli, e.g. BL21 (DE3)
T2 sequence (P01116 1-188 isoform P01116-2): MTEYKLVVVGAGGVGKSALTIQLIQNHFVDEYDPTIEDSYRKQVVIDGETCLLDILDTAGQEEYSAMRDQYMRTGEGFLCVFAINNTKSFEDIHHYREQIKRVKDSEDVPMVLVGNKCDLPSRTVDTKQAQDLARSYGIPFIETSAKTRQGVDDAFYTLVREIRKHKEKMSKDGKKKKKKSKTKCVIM
Text: as §1, §2, §3

KRAS G12V = target: T3, KRAS G12V (Homo sapiens, UniProt P01116, G12V); test: HTRF assay, interaction of KRAS G12V with SOS1; settings: Ras::SOS1 interaction, read-out: Inhibition of KRAS G12V (IC50)
T3 construct: made in house; host or cells: E. coli, e.g. BL21 (DE3)
T3 sequence (P01116 1-188 isoform P01116-2 G12V): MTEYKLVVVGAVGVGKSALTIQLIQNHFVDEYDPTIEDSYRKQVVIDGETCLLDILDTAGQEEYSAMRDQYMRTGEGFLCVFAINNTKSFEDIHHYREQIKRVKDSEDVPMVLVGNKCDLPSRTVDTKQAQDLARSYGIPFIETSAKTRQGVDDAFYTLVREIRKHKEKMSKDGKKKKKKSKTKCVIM
Text: as §1, §2, §3

T1 sequence (P01116 1-188 isoform P01116-2 G12D): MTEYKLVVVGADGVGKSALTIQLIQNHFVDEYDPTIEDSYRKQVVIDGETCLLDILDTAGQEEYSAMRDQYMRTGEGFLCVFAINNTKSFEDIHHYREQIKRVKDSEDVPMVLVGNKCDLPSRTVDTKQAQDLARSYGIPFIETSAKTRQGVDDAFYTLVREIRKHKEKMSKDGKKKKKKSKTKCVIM

IC50 (KRAS G12D) [µM]	IC50 (wildtype KRAS) [µM]	IC50 (KRAS G12V) [µM]	SMILES
≤ 5	≤ 5		CN(C)CC1CC=CCCN2c3nc(nc4c(F)c(-c5ccc(F)c6sc(N)c(C#N)c56)c(Cl)c(c34)OC[C@@H]2C(F)F)O1 (mixture of isomers) [Compound 107, 2-amino-4-((11R)-14-chloro-11-(difluoromethyl)-4-((dimethylamino)methyl)-16-fluoro-4,5,8,9,11,12-hexahydro-2,17-(azeno)benzo[6,7][1,4]oxazepino[5,4-d][1]oxa[3,5]diazacycloundecin-15-yl)-7-fluorobenzo[b]thiophene-3-carbonitrile]
≤ 5	≤ 5	≤ 5	C[C@H]1COc2c(Cl)c(-c3ccc(F)c4sc(N)c(C#N)c34)c(F)c3nc4nc(c23)N1CCC=CCC(CN(C)C)O4 (mixture of isomers) [Compound 150, 2-amino-4-((11S)-14-chloro-4-((dimethylamino)methyl)-16-fluoro-11-methyl-4,5,8,9,11,12-hexahydro-2,17-(azeno)benzo[6,7][1,4]oxazepino[5,4-d][1]oxa[3,5]diazacycloundecin-15-yl)-7-fluorobenzo[b]thiophene-3-carbonitrile]
≤ 5	≤ 5	≤ 5	C[C@H]1COc2c(Cl)c(-c3ccc(F)c4sc(N)c(C#N)c34)c(F)c3nc4nc(c23)N1CCC=CCC(CN(C)C)O4 (single isomer, unassigned) [Compound 103]
≤ 5	≤ 5	≤ 5	CN1C[C@@H]2C[C@H]1COc1nc3c4c(c(Cl)c(-c5ccc(F)c6sc(N)c(C#N)c56)c(F)c4n1)OCCN3CCCO2 (single isomer, unassigned) [Compound 135]
≤ 5	≤ 5	≤ 5	CN(C)CCC1CC=CCCN2CCOc3c(Cl)c(-c4ccc(F)c5sc(N)c(C#N)c45)c(F)c4nc(nc2c34)O1 (single isomer, unassigned) [Compound 148, 2-amino-4-(14-chloro-4-(2-(dimethylamino)ethyl)-16-fluoro-4,5,8,9,11,12-hexahydro-2,17-(azeno)benzo[6,7][1,4]oxazepino[5,4-d][1]oxa[3,5]diazacycloundecin-15-yl)-7-fluorobenzo[b]thiophene-3-carbonitrile]
≤ 5	≤ 5	≤ 5	CN(C)CC1CC/C=C/CCN2CCOc3c(Cl)c(-c4ccc(F)c5sc(N)c(C#N)c45)c(F)c4nc(nc2c34)O1 (stereo not shown) [Compound 101, (E)-2-amino-4-(15-chloro-4-((dimethylamino)methyl)-17-fluoro-5,6,9,10,12,13-hexahydro-4H-2,18-(azeno)benzo[6,7][1,4]oxazepino[5,4-d][1]oxa[3,5]diazacyclododecin-16-yl)-7-fluorobenzo[b]thiophene-3-carbonitrile]
≤ 5	≤ 5	≤ 5	CN(C)[C@@H]1CNC(=O)CCN2CCOc3c(Cl)c(-c4ccc(F)c5sc(N)c(C#N)c45)c(F)c4nc(nc2c34)OC1 [Compound 104, 2-amino-4-((5R)-15-chloro-5-(dimethylamino)-17-fluoro-8-oxo-5,6,7,8,9,10,12,13-octahydro-4H-2,18-(azeno)benzo[6,7][1,4]oxazepino[5,4-d][1]oxa[3,5,9]triazacyclododecin-16-yl)-7-fluorobenzo[b]thiophene-3-carbonitrile]
≤ 5	≤ 5	≤ 5	CN(C)CC1/C=C/CCN2CCOc3c(Cl)c(-c4ccc(F)c5sc(N)c(C#N)c45)c(F)c4nc(nc2c34)OC1 (stereo not shown) [Compound 110, (E)-2-amino-4-(14-chloro-5-((dimethylamino)methyl)-16-fluoro-4,5,8,9,11,12-hexahydro-2,17-(azeno)benzo[6,7][1,4]oxazepino[5,4-d][1]oxa[3,5]diazacycloundecin-15-yl)-7-fluorobenzo[b]thiophene-3-carbonitrile]
≤ 5	≤ 5	≤ 5	N#Cc1c(N)sc2c(F)ccc(-c3c(Cl)c4c5c6nc(nc5c3F)OCCNC(=O)CCN6CCO4)c12 [Compound 112, 2-amino-4-(14-chloro-16-fluoro-7-oxo-4,5,6,7,8,9,11,12-octahydro-2,17-(azeno)benzo[6,7][1,4]oxazepino[5,4-d][1]oxa[3,5,9]triazacycloundecin-15-yl)-7-fluorobenzo[b]thiophene-3-carbonitrile]
		≤ 5	CN1CCCCOc2nc3c4c(c(Cl)c(-c5ccc(F)c6sc(N)c(C#N)c56)c(F)c4n2)OCCN3CCCC1 [Compound 113, 2-amino-4-(17-chloro-19-fluoro-8-methyl-5,6,7,8,9,10,11,12,14,15-decahydro-4H-2,20-(azeno)benzo[6,7][1,4]oxazepino[5,4-d][1]oxa[3,5,10]triazacyclotetradecin-18-yl)-7-fluorobenzo[b]thiophene-3-carbonitrile]
		≤ 5	CN(C)CC1CC=CCCN2c3nc(nc4c(F)c(-c5ccc(F)c6sc(N)c(C#N)c56)c(Cl)c(c34)OC[C@@H]2C(F)F)O1 (stereo partly drawn) [Compound 115, 2-amino-4-((11R)-14-chloro-11-(difluoromethyl)-4-((dimethylamino)methyl)-16-fluoro-4,5,8,9,11,12-hexahydro-2,17-(azeno)benzo[6,7][1,4]oxazepino[5,4-d][1]oxa[3,5]diazacycloundecin-15-y1)-7-fluorobenzo[b]thiophene-3-carbonitrile]
≤ 5	≤ 5	≤ 5	CN(C)CC1CC=CCCN2CCOc3c(Cl)c(-c4ccc(F)c5sc(N)c(C#N)c45)c(F)c4nc(nc2c34)O1 (stereo not shown) [Compound 116, 2-amino-4-(14-chloro-4-((dimethylamino)methyl)-16-fluoro-4,5,8,9,11,12-hexahydro-2,17-(azeno)benzo[6,7][1,4]oxazepino[5,4-d][1]oxa[3,5]diazacycloundecin-15-yl)-7-fluorobenzo[b]thiophene-3-carbonitrile]
≤ 5	≤ 5	≤ 5	CN(C)CC1CCCCCCN2CCOc3c(Cl)c(-c4ccc(F)c5sc(N)c(C#N)c45)c(F)c4nc(nc2c34)O1 (stereo not shown) [Compound 117, 2-amino-4-(15-chloro-4-((dimethylamino)methyl)-17-fluoro-5,6,7,8,9,10,12,13-octahydro-4H-2,18-(azeno)benzo[6,7][1,4]oxazepino[5,4-d][1]oxa[3,5]diazacyclododecin-16-yl)-7-fluorobenzo[b]thiophene-3-carbonitrile]
≤ 5	≤ 5	≤ 5	CN(C)C[C@H]1CCNC(=O)CCN2CCOc3c(Cl)c(-c4ccc(F)c5sc(N)c(C#N)c45)c(F)c4nc(nc2c34)O1 [Compound 123, 2-amino-4-((4R)-15-chloro-4-((dimethylamino)methyl)-17-fluoro-8-oxo-5,6,7,8,9,10,12,13-octahydro-4H-2,18-(azeno)benzo[6,7][1,4]oxazepino[5,4-d][1]oxa[3,5,9]triazacyclododecin-16-yl)-7-fluorobenzo[b]thiophene-3-carbonitrile]
≤ 5	≤ 5	≤ 5	CN(C)CC1CNC(=O)CCN2CCOc3c(Cl)c(-c4ccc(F)c5sc(N)c(C#N)c45)c(F)c4nc(nc2c34)O1 (stereo not shown) [Compound 128, 2-amino-4-(14-chloro-4-((dimethylamino)methyl)-16-fluoro-7-oxo-4,5,6,7,8,9,11,12-octahydro-2,17-(azeno)benzo[6,7][1,4]oxazepino[5,4-d][1]oxa[3,5,9]triazacycloundecin-15-yl)-7-fluorobenzo[b]thiophene-3-carbonitrile]
≤ 5	≤ 5	≤ 5	CNCCC1CC=CCCN2CCOc3c(Cl)c(-c4ccc(F)c5sc(N)c(C#N)c45)c(F)c4nc(nc2c34)O1 (stereo not shown) [Compound 130, 2-amino-4-(14-chloro-16-fluoro-4-(2-(methylamino)ethyl)-4,5,8,9,11,12-hexahydro-2,17-(azeno)benzo[6,7][1,4]oxazepino[5,4-d][1]oxa[3,5]diazacycloundecin-15-yl)-7-fluorobenzo[b]thiophene-3-carbonitrile]
